{
  "source": "ChEMBL document CHEMBL1201862",
  "about": "“PubChem BioAssay data set” (2004)",
  "test_in_all_cases": "NCI anticancer screen, dose series, 48 h",
  "key": {"A549": {"system": "A549"}, "SNB-75": {"system": "SNB-75"}, "CAKI-1": {"system": "CAKI-1"}, "UACC-62": {"system": "UACC-62"}, "SR": {"system": "SR"}, "OVCAR-4": {"system": "OVCAR-4"}, "OVCAR-8": {"system": "OVCAR-8"}, "OVCAR-3": {"system": "OVCAR-3"}, "HCC 2998": {"system": "HCC 2998"}, "ACHN": {"system": "ACHN"}, "MCF7": {"system": "MCF7"}, "SF-539": {"system": "SF-539"}, "COLO 205": {"system": "COLO 205"}, "HL-60": {"system": "HL-60"}, "OVCAR-5": {"system": "OVCAR-5"}, "M14": {"system": "M14"}, "KM12": {"system": "KM12"}, "MDA-MB-435": {"system": "MDA-MB-435"}, "HCT-116": {"system": "HCT-116"}, "MDA-N": {"system": "MDA-N"}, "MDA-MB-231": {"system": "MDA-MB-231"}, "NCI/ADR-RES": {"system": "NCI/ADR-RES"}, "T47D": {"system": "T47D"}, "HOP-92": {"system": "HOP-92"}, "SK-MEL-28": {"system": "SK-MEL-28"}, "RXF 393": {"system": "RXF 393"}, "CCRF-CEM": {"system": "CCRF-CEM"}, "PC-3": {"system": "PC-3"}, "BT-549": {"system": "BT-549"}, "HT-29": {"system": "HT-29"}, "HCT-15": {"system": "HCT-15"}, "Malme-3M": {"system": "Malme-3M"}, "EKVX": {"system": "EKVX"}, "NCI-H522": {"system": "NCI-H522"}, "K562": {"system": "K562"}, "NCI-H460": {"system": "NCI-H460"}, "SNB-19": {"system": "SNB-19"}, "SW-620": {"system": "SW-620"}, "NCI-H23": {"system": "NCI-H23"}, "MOLT-4": {"system": "MOLT-4"}, "UO-31": {"system": "UO-31"}, "A498": {"system": "A498"}, "SK-MEL-2": {"system": "SK-MEL-2"}, "SF-295": {"system": "SF-295"}, "SK-MEL-5": {"system": "SK-MEL-5"}, "RPMI-8226": {"system": "RPMI-8226"}, "NCI-H226": {"system": "NCI-H226"}, "786-0": {"system": "786-0"}, "UACC-257": {"system": "UACC-257"}, "SK-OV-3": {"system": "SK-OV-3"}, "U-251": {"system": "U-251"}, "LOX IMVI": {"system": "LOX IMVI"}, "IGROV-1": {"system": "IGROV-1"}, "Hs-578T": {"system": "Hs-578T"}, "TK-10": {"system": "TK-10"}, "DU-145": {"system": "DU-145"}},
  "note": "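Assay format: 96-well plates, 48-hour exposure. The concentration for 50% growth inhibition is given as GI50.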 Calls of active or inactive are those of the source. No stated cut-off is given here; in the data, active = GI50 up to about 1.1 µM and inactive = higher.",
  "data": [
    {"smiles": "C=CCCC(=O)CC(O)(C(F)(F)F)C(F)(F)F", "values": [
      {"measurement": "GI50", "setting": "A549", "result": "> 100 µM (inactive)"},
      {"measurement": "GI50", "setting": "SNB-75", "result": "> 100 µM (inactive)"},
      {"measurement": "GI50", "setting": "CAKI-1", "result": "> 100 µM (inactive)"},
      {"measurement": "GI50", "setting": "UACC-62", "result": "> 100 µM (inactive)"},
      {"measurement": "GI50", "setting": "SR", "result": "> 100 µM (inactive)"},
      {"measurement": "GI50", "setting": "OVCAR-4", "result": "> 100 µM (inactive)"},
      {"measurement": "GI50", "setting": "OVCAR-8", "result": "> 100 µM (inactive)"},
      {"measurement": "GI50", "setting": "OVCAR-3", "result": "> 100 µM (inactive)"},
      {"measurement": "GI50", "setting": "HCC 2998", "result": "> 100 µM (inactive)"},
      {"measurement": "GI50", "setting": "ACHN", "result": "> 100 µM (inactive)"},
      {"measurement": "GI50", "setting": "MCF7", "result": "> 100 µM (inactive)"},
      {"measurement": "GI50", "setting": "SF-539", "result": "> 100 µM (inactive)"},
      {"measurement": "GI50", "setting": "COLO 205", "result": "> 100 µM (inactive)"},
      {"measurement": "GI50", "setting": "HL-60", "result": "> 100 µM (inactive)"},
      {"measurement": "GI50", "setting": "OVCAR-5", "result": "> 100 µM (inactive)"},
      {"measurement": "GI50", "setting": "M14", "result": "> 100 µM (inactive)"},
      {"measurement": "GI50", "setting": "KM12", "result": "> 100 µM (inactive)"},
      {"measurement": "GI50", "setting": "MDA-MB-435", "result": "> 100 µM (inactive)"},
      {"measurement": "GI50", "setting": "HCT-116", "result": "> 100 µM (inactive)"},
      {"measurement": "GI50", "setting": "MDA-N", "result": "> 100 µM (inactive)"},
      {"measurement": "GI50", "setting": "MDA-MB-231", "result": "> 100 µM (inactive)"},
      {"measurement": "GI50", "setting": "NCI/ADR-RES", "result": "> 100 µM (inactive)"},
      {"measurement": "GI50", "setting": "T47D", "result": "> 100 µM (inactive)"},
      {"measurement": "GI50", "setting": "HOP-92", "result": "> 100 µM (inactive)"},
      {"measurement": "GI50", "setting": "SK-MEL-28", "result": "> 100 µM (inactive)"},
      {"measurement": "GI50", "setting": "RXF 393", "result": "> 100 µM (inactive)"},
      {"measurement": "GI50", "setting": "CCRF-CEM", "result": "> 100 µM (inactive)"},
      {"measurement": "GI50", "setting": "PC-3", "result": "> 100 µM (inactive)"},
      {"measurement": "GI50", "setting": "BT-549", "result": "> 100 µM (inactive)"},
      {"measurement": "GI50", "setting": "HT-29", "result": "> 100 µM (inactive)"},
      {"measurement": "GI50", "setting": "HCT-15", "result": "> 100", "unit": "µM"},
      {"measurement": "GI50", "setting": "Malme-3M", "result": "> 100 µM (inactive)"},
      {"measurement": "GI50", "setting": "EKVX", "result": "> 100 µM (inactive)"},
      {"measurement": "GI50", "setting": "NCI-H522", "result": "> 100 µM (inactive)"},
      {"measurement": "GI50", "setting": "K562", "result": "> 100 µM (inactive)"},
      {"measurement": "GI50", "setting": "NCI-H460", "result": "> 100 µM (inactive)"},
      {"measurement": "GI50", "setting": "SNB-19", "result": "> 100 µM (inactive)"},
      {"measurement": "GI50", "setting": "SW-620", "result": "> 100 µM (inactive)"},
      {"measurement": "GI50", "setting": "NCI-H23", "result": "> 100 µM (inactive)"},
      {"measurement": "GI50", "setting": "MOLT-4", "result": "> 100 µM (inactive)"},
      {"measurement": "GI50", "setting": "UO-31", "result": "> 100 µM (inactive)"},
      {"measurement": "GI50", "setting": "A498", "result": "> 100 µM (inactive)"},
      {"measurement": "GI50", "setting": "SK-MEL-2", "result": "> 100 µM (inactive)"},
      {"measurement": "GI50", "setting": "SF-295", "result": "> 100 µM (inactive)"},
      {"measurement": "GI50", "setting": "SK-MEL-5", "result": "> 100 µM (inactive)"},
      {"measurement": "GI50", "setting": "RPMI-8226", "result": "> 100 µM (inactive)"},
      {"measurement": "GI50", "setting": "NCI-H226", "result": "> 100 µM (inactive)"},
      {"measurement": "GI50", "setting": "786-0", "result": "> 100 µM (inactive)"},
      {"measurement": "GI50", "setting": "UACC-257", "result": "> 100 µM (inactive)"},
      {"measurement": "GI50", "setting": "SK-OV-3", "result": "> 100 µM (inactive)"},
      {"measurement": "GI50", "setting": "U-251", "result": "> 100 µM (inactive)"},
      {"measurement": "GI50", "setting": "LOX IMVI", "result": "> 100 µM (inactive)"},
      {"measurement": "GI50", "setting": "IGROV-1", "result": "> 100 µM (inactive)"},
      {"measurement": "GI50", "setting": "Hs-578T", "result": "> 100 µM (inactive)"},
      {"measurement": "GI50", "setting": "TK-10", "result": "> 100 µM (inactive)"},
      {"measurement": "GI50", "setting": "DU-145", "result": "> 100 µM (inactive)"}
    ]}
  ]
}
